According to patent publication US20040086901A1, “Database for analyzing gene function and method of analyzing gene function by dspa” (priority 2000, published 2004):

Experiments:
Format in all cases: cell-based, mouse
[1] = test system: NIH3T3 cells overexpressing caspase-1; test: MTT cell viability, caspase-1 overexpressing cells vs parental line; conditions: caspase-1 high-expressing cells / parental cell line, 3 to 4 days
Procedure: (§1) With regard to the function-known genes, the genes shown in the left column of Table 2 were used. With regard to the drugs, those shown in Table 1 were dissolved in DMSO to an extent of 100-fold of the maximum concentration for the search of the drugs and used. With regard to the cells, incubated NIH3T3 or ras-NIH3T3 cells were used.
(§2) Full-length cDNA of each function-known genes was incorporated into an expression vector (pRc-CMV, etc.) and transfected into NIH3T3 cells by a common method. Transformed cells were isolated using the resistance to G-418 as an index and the expression of the transfected gene in each cell was investigated by Western blotting method to select a highly expressing line.
(§3) Cell viabilities were measured according to the following procedures.
(§4) 1) From the 2nd to the 11th rows of a 96-well plate were filled with DMEM (50 μl). The 12th row was filled with 100 μl of DMEM.
(§5) 2) The 1st row was filled with 98 μl of DMEM.
(§6) 3) Drugs (2 μl each) were added into the 1st row.
(§7) 4) Continuous double-dilution was conducted from the 1st to the 9th rows. Fifty μl were taken out from the 9th row and discarded. The plate was preserved in a CO2 incubator.
(§8) 5) Cells (each high-expressing cells and the parental cell line) were detached from the medium using a trypsin solution, suspended in 10% CS-DMEM and transferred to a test tube and cell numbers (cell/ml) were counted.
(§9) 6) The cells were diluted to a concentration of 1×10^5 cells/ml, and 50 μl of the cell suspension were added to the 1st to the 11th rows of the plate followed by gently stirring.
(§10) 7) The plate was transferred to the CO2 incubator and incubated for 3 to 4 days.
(§11) 8) MTT (5 mg/ml in PBS) (10 μl) was added to the 1st to the 12th rows of the plate and incubated in the CO2 incubator at 37° C. for 4 hours.
(§12) 9) A reaction stop solution (0.04N HCl in isopropanol) (150 μl) was added followed by mixing well and being allowed to stand at room temperature for about 2 hours.
(§13) 10) Coloration of formazan which was a metabolite of the MTT dye was measured using a microplate reader. The measurement wavelength was 574 nm and the reference wavelength was 655 nm. The 10th and the 11th rows of the plate were 100% controls and the 12th row was a 0% control.
(§14) As an index for the sensitivity of highly gene-expressing cells and the parental cell line to various drugs, each of the IC40 values thereof was specified and ratios of the IC40 values were calculated. […] After that, logarithmic values of ratios of IC40 values were calculated from each gene.

[2] = test system: NIH3T3 cells overexpressing HSP4O; test: MTT cell viability, HSP4O overexpressing cells vs parental line; conditions: HSP4O high-expressing cells / parental cell line, 3 to 4 days
Procedure: as §1, §2, §3, §4, §5, §6, §7, §8, §9, §10, §11, §12, §13
(§15) As an index for the sensitivity of highly gene-expressing cells and the parental cell line to various drugs, each of the IC40 values thereof was specified and ratios of the IC40 values were calculated. FIG. 2 and FIG. 3 are the examples where ratios of IC40 values were calculated from a curve showing the dependency on the concentration of the chemical versus the viability. After that, logarithmic values of ratios of IC40 values were calculated from each gene.

[3] = test system: NIH3T3 cells overexpressing HNF4; test: MTT cell viability, HNF4 overexpressing cells vs parental line; conditions: HNF4 high-expressing cells / parental cell line, 3 to 4 days
Procedure: as §1, §2, §3, §4, §5, §6, §7, §8, §9, §10, §11, §12, §13, §14

[4] = test system: NIH3T3 cells overexpressing HNF1; test: MTT cell viability, HNF1 overexpressing cells vs parental line; conditions: HNF1 high-expressing cells / parental cell line, 3 to 4 days
Procedure: as §1, §2, §3, §4, §5, §6, §7, §8, §9, §10, §11, §12, §13, §14

[5] = test system: NIH3T3 cells overexpressing PDGF-R; test: MTT cell viability, PDGF-R overexpressing cells vs parental line; conditions: PDGF-R high-expressing cells / parental cell line, 3 to 4 days
Procedure: as §1, §2, §3, §4, §5, §6, §7, §8, §9, §10, §11, §12, §13, §15

[6] = test system: NIH3T3 cells overexpressing DAN; test: MTT cell viability, DAN overexpressing cells vs parental line; conditions: DAN high-expressing cells / parental cell line, 3 to 4 days
Procedure: as §1, §2, §3, §4, §5, §6, §7, §8, §9, §10, §11, §12, §13, §15

[7] = test system: NIH3T3 cells overexpressing p38-DN; test: MTT cell viability, p38-DN overexpressing cells vs parental line; conditions: p38-DN high-expressing cells / parental cell line, 3 to 4 days
Procedure: as §1, §2, §3, §4, §5, §6, §7, §8, §9, §10, §11, §12, §13, §14

[8] = test system: NIH3T3 cells, TPA (PKC downreg); test: MTT cell viability, TPA (PKC downreg) cells vs parental line; conditions: 3 to 4 days
Procedure: as §1, §2, §3, §4, §5, §6, §7, §8, §9, §10, §11, §12, §13, §15

[9] = test system: NIH3T3 cells overexpressing CaMKIIa; test: MTT cell viability, CaMKIIa overexpressing cells vs parental line; conditions: CaMKIIa high-expressing cells / parental cell line, 3 to 4 days
Procedure: as §1, §2, §3, §4, §5, §6, §7, §8, §9, §10, §11, §12, §13, §14

[10] = test system: NIH3T3 cells overexpressing m-calpain; test: MTT cell viability, m-calpain overexpressing cells vs parental line; conditions: m-calpain high-expressing cells / parental cell line, 3 to 4 days
Procedure: as §1, §2, §3, §4, §5, §6, §7, §8, §9, §10, §11, §12, §13, §14

[11] = test system: NIH3T3 cells overexpressing CP-antisense; test: MTT cell viability, CP-antisense cells vs parental line; conditions: 3 to 4 days
Procedure: as §1, §2, §3, §4, §5, §6, §7, §8, §9, §10, §11, §12, §13, §15

[12] = test system: NIH3T3 cells overexpressing RhoA; test: MTT cell viability, RhoA overexpressing cells vs parental line; conditions: RhoA high-expressing cells / parental cell line, 3 to 4 days
Procedure: as §1, §2, §3, §4, §5, §6, §7, §8, §9, §10, §11, §12, §13, §15

[13] = test system: NIH3T3 cells overexpressing HNF3b; test: MTT cell viability, HNF3b overexpressing cells vs parental line; conditions: HNF3b high-expressing cells / parental cell line, 3 to 4 days
Procedure: as §1, §2, §3, §4, §5, §6, §7, §8, §9, §10, §11, §12, §13, §14

[14] = test system: NIH3T3 cells overexpressing erbB2; test: MTT cell viability, erbB2 overexpressing cells vs parental line; conditions: erbB2 high-expressing cells / parental cell line, 3 to 4 days
Procedure: as §1, §2, §3, §4, §5, §6, §7, §8, §9, §10, §11, §12, §13, §15

[15] = test system: NIH3T3 cells overexpressing CBP8; test: MTT cell viability, CBP8 overexpressing cells vs parental line; conditions: CBP8 high-expressing cells / parental cell line, 3 to 4 days
Procedure: as §1, §2, §3, §4, §5, §6, §7, §8, §9, §10, §11, §12, §13, §15

[16] = test system: NIH3T3 cells overexpressing PKCalpha-KN; test: MTT cell viability, PKCalpha-KN overexpressing cells vs parental line; conditions: 3 to 4 days
Procedure: as §1, §2, §3, §4, §5, §6, §7, §8, §9, §10, §11, §12, §13, §14

[17] = test system: NIH3T3 cells overexpressing cAMP-PK-CS; test: MTT cell viability, cAMP-PK-CS overexpressing cells vs parental line; conditions: cAMP-PK-CS high-expressing cells / parental cell line, 3 to 4 days
Procedure: as §1, §2, §3, §4, §5, §6, §7, §8, §9, §10, §11, §12, §13, §14

[18] = test system: NIH3T3 cells overexpressing cystatin E; test: MTT cell viability, cystatin E overexpressing cells vs parental line; conditions: cystatin E high-expressing cells / parental cell line, 3 to 4 days
Procedure: as §1, §2, §3, §4, §5, §6, §7, §8, §9, §10, §11, §12, §13, §15

[19] = test system: NIH3T3 cells overexpressing v-src; test: MTT cell viability, v-src overexpressing cells vs parental line; conditions: v-src high-expressing cells / parental cell line, 3 to 4 days
Procedure: as §1, §2, §3, §4, §5, §6, §7, §8, §9, §10, §11, §12, §13, §15

[20] = test system: NIH3T3 cells overexpressing PKCepsilon-KN; test: MTT cell viability, PKCepsilon-KN overexpressing cells vs parental line; conditions: 3 to 4 days
Procedure: as §1, §2, §3, §4, §5, §6, §7, §8, §9, §10, §11, §12, §13, §14

[21] = PKCalpha-KN (first of two lines) high-expressing cells / parental cell line
[22] = PKCalpha-KN (second of two lines) high-expressing cells / parental cell line
[23] = PKCepsilon-KN (first of two lines) high-expressing cells / parental cell line
[24] = PKCepsilon-KN (second of two lines) high-expressing cells / parental cell line

Molecule | logarithmic value of ratio of IC40 values [1] | logarithmic value of ratio of IC40 values [2] | logarithmic value of ratio of IC40 values [3] | logarithmic value of ratio of IC40 values [4] | logarithmic value of ratio of IC40 values [5] | logarithmic value of ratio of IC40 values [6] | logarithmic value of ratio of IC40 values [7] | logarithmic value of ratio of IC40 values [8] | logarithmic value of ratio of IC40 values [9] | logarithmic value of ratio of IC40 values [10] | logarithmic value of ratio of IC40 values [11] | logarithmic value of ratio of IC40 values [12] | logarithmic value of ratio of IC40 values [13] | logarithmic value of ratio of IC40 values [14] | logarithmic value of ratio of IC40 values [15] | logarithmic value of ratio of IC40 values [16, 21] | logarithmic value of ratio of IC40 values [16, 22] | logarithmic value of ratio of IC40 values [17] | logarithmic value of ratio of IC40 values [18] | logarithmic value of ratio of IC40 values [19] | other results
O=c1c(-c2ccc(O)cc2)coc2cc(O)cc(O)c12 [Genistein, genistein] | −0.12 | 0.00 | −0.15 | 0.234 | 0.32 | 0.20 | 0.00 | −0.09 | −0.15 | 0.18 | 0.00 | 0.31 | −0.21 | −0.60 | 0.10 | 0.16 | 0.24 | 0.00 | 0.21 | −0.60 | logarithmic value of ratio of IC40 values [20, 23]: 0.00; logarithmic value of ratio of IC40 values [20, 24]: 0.19
CNc1ccc2oc(C[C@H]3O[C@@]4(CC[C@H]3C)O[C@H]([C@H](C)C(=O)c3ccc[nH]3)[C@H](C)C[C@H]4C)nc2c1C(=O)O [A23187] | −0.22 | −0.16 | 0.19 | 0.35 | 0.31 | 0.40 | −0.12 | −0.22 | 0.00 | 0.26 | −0.36 | 0.26 | −0.16 | −0.07 | 0.22 | 0.22 | −0.05 | −0.08 | 0.22 | −0.19 | logarithmic value of ratio of IC40 values [20, 23]: −0.28; logarithmic value of ratio of IC40 values [20, 24]: 0.15
sodium vanadate | −0.11 | −0.03 | −0.03 | 0.046 | 0.22 | 0.30 | −0.04 | −0.03 | −0.13 | −0.10 | 0.04 | 0.28 | 0.22 | −0.40 | 0.03 | 0.23 | 0.08 | 0.00 | 0.20 | 0.00 | logarithmic value of ratio of IC40 values [20, 23]: 0.09; logarithmic value of ratio of IC40 values [20, 24]: 0.18
